Paper PMC6662714, “High-throughput identification of peptide agonists against GPCRs by co-culture of mammalian reporter cells and peptide-secreting yeast cells using droplet microfluidics” (Scientific Reports, 2019)

Legend:
human GLP1R (hGLP1R) [1] = assay: Co-culture of floating hGLP1R/LacZ-293 and ligand-secreting yeast cells; format: cell-based; conditions: co-culture with yeast cells secreting Ex4 (4.5 × 10^5 cells/50 µL) vs WT yeast, RPMI-1640, 50 µM CMFDG, 37 °C, 12 h, n = 3, Fig. 3b
From the text: Saccharomyces cerevisiae BY4742 [MATα, his3Δ1, leu2Δ0, lys2Δ0, ura3Δ0] (GE Healthcare) was used for the secretion of a hGLP1R agonist, Exendin-4 (Ex4, produced by the Gila monster[31]) and randomized Ex4 variants. To construct an Ex4-secretory yeast, pULS-Ex4[13] was transformed into the BY4742 strain using the Frozen-EZ Yeast Transformation-II Kit (Zymo Research, Orange, CA, USA). Yeast cells secreting randomized Ex4 variants were constructed using gap repair cloning[34] as follows. pULS plasmid[13] was digested with EcoRI and KpnI to obtain a linear vector fragment. Insert DNA fragments encoding Ex4 genes whose two N-terminal amino acids were randomized were PCR-amplified from pULS-Ex4 using the following primers: 5′-[…]-3′ and 5′-[…]-3′. The BY4742 strains were transformed using the linear vector fragments (500 ng) and the randomized insert fragments (250 ng) for gap repair cloning. […]
Co-culture of floating hGLP1R/LacZ-293 and ligand-secreting yeast cells was carried out using the following procedure. […] Immediately after the modification, the solution was incubated in a 96-well plate at 37 °C for 12 h, and fluorescence intensity was measured.

human GLP1R (hGLP1R) [2] = assay: Functional cell-based assay, floating hGLP1R/LacZ-293 cells; conditions: 30 nM authentic Ex4, floating cells 5 × 10^3 cells/50 µL, RPMI-1640, 50 µM CMFDG, 37 °C, 12 h; n = 3; Fig. 3a
Protocol: To construct a reporter cell line that constitutively produces human GLP1R (hGLP1R) and inducibily secretes NanoLuc in response to the activation of hGLP1R, pIRES-hGLP1R, and pCRE-NLuc[13], were co-transfected in HEK293 cells (European Collection of Cell Culture, Salisbury, UK) using Xfect™ (Clontech Laboratries, Inc., Mountain View, CA, USA). The transfected cells were cultured in Dulbecco’s Modified Eagle Medium (DMEM) (Nacalai Tesque, Kyoto, Japan) containing 10% FBS (GE Healthcare, Little Chalfont, UK), 1% penicillin-streptomycin (Sigma-Aldrich, St. Louis, MO, USA), 400 µg/mL G418 (Nacalai Tesque), and 0.1 µg/mL puromycin (Wako Pure Chemical Industries, Osaka, Japan). The reporter cells were selected to establish a stable cell line harboring GLP1R and secretory NanoLuc genes (hGLP1R/NLuc-293)[13]. To construct a reporter cell line that secretes LacZ in response to the activation of hGLP1R, pIRES-hGLP1R[13], and pCRE-LacZ were co-transfected in HEK293 cells, and a reporter cell line, hGLP1R/LacZ-293, was selected using a medium containing G418 and puromycin. […]
An assay using floating hGLP1R/LacZ-293 was carried out using the following procedure. […] Immediately after the modification, the solution was placed in a 96-well plate and incubated at 37 °C for 12 h, and fluorescence intensity was measured.

GLP1R = conditions: cited from earlier work
From the text: To investigate whether the activity of the peptides was not influenced by the post-translational modifications by yeast or differences in secretion efficiencies, WT Ex4 and Ex4 variants fused with an N-terminal FLAG sequence were produced using Escherichia coli. The peptides were purified using anti-FLAG resin, and reacted with enterokinase, which cleaves the peptides after the FLAG sequence to expose free N-terminal of Ex4 peptides. We added the purified WT Ex4 produced by E. coli with or without enterokinase reactions to the hGLP1R/NLuc-293 cells, and observed a significant increase in lumin ...

human GLP1R (hGLP1R) [3] = assay: Functional cell-based assay, adherent hGLP1R/NLuc-293 reporter cells (NanoLuc luminescence); conditions: DMEM, 37 °C, 12 h
Protocol: (§1) To construct a reporter cell line that constitutively produces human GLP1R (hGLP1R) and inducibily secretes NanoLuc in response to the activation of hGLP1R, pIRES-hGLP1R, and pCRE-NLuc[13], were co-transfected in HEK293 cells (European Collection of Cell Culture, Salisbury, UK) using Xfect™ (Clontech Laboratries, Inc., Mountain View, CA, USA). The transfected cells were cultured in Dulbecco’s Modified Eagle Medium (DMEM) (Nacalai Tesque, Kyoto, Japan) containing 10% FBS (GE Healthcare, Little Chalfont, UK), 1% penicillin-streptomycin (Sigma-Aldrich, St. Louis, MO, USA), 400 µg/mL G418 (Nacalai Tesque), and 0.1 µg/mL puromycin (Wako Pure Chemical Industries, Osaka, Japan). […]
To perform a functional assay using the adherent hGLP1R/NLuc-293 cell line, hGLP1R/NLuc-293 cells were seeded at 5 × 10^3 cells/100 µL in a 96-well plate (Thermo Fisher Scientific) and cultured at 37 °C for 24 h. […] Afterwards, 50 µL luciferase substrate (Nano-Glo™ Luciferase Assay System, Promega, Fitchburg, WI, USA) was added, and luminescence intensity was measured using a Fluoroskan Ascent™ Microplate Fluorometer (Thermo Fisher Scientific).
To verify the activities of the identified Ex4 variants, we prepared variant peptides using E. coli as follows. […] The calibration curve used for quantification was obtained with standard FLAG peptides (Wako Pure Chemical Industries).

human GLP1R (hGLP1R) [4] = assay: Functional cell-based assay, adherent hGLP1R/LacZ-293 reporter cells (LacZ fluorescence); conditions: DMEM, 50 µM CMFDG, 37 °C, 12 h
Protocol: as §1, with “Japan). The reporter cells were selected to establish a stable cell line harboring GLP1R and secretory NanoLuc genes (hGLP1R/NLuc-293)[13].” for “Japan).”
To perform a functional assay using the adherent hGLP1R/LacZ-293 cell line, hGLP1R/LacZ-293 cells were seeded at 5 × 10^3 cells/100 µL in a 96-well plate (Thermo Fisher Scientific) and cultured at 37 °C for 24 h. […] After 12 h incubation at 37 °C, fluorescence intensity was measured using Fluoroskan Ascent™ Microplate Fluorometer.

human GLP1R (hGLP1R) [5] = assay: Functional cell-based assay in droplets (droplet microfluidics), hGLP1R/LacZ-293; conditions: 6 h, Fig. 4b; for fluorescence intensity of droplets: DMEM, 50 µM CMFDG, 30 °C, at least 70 droplets
From the text: A single-inlet microfluidic device was designed according to previous reports[39],[40] (Fig. S1). In brief, polydimethylsiloxane (PDMS, Sylgard 184, Dow Corning Corp, Midland, MI, USA) and its cross-linker were mixed at a ratio of 10:1 (w/w), degassed, poured onto a master mold, and cured. The cured PDMS was peeled from the mold and punched with 0.75 mm biopsy punch (World Precision Instruments, Sarasota, FL, USA). The PDMS slab was bonded to a glass slide by plasma treatment (Plasma Cleaner PDG-32G; Harrick Scientific, Pleasantville, NY, USA), and baked for at least 30 min at 70 °C. The microfluidics device, an air compressor, Mitos P-Pump Basic (Dolomite, Charleston, MA, USA) were connected, and the pressure was set to be about 150 mbar for aqueous phase and about 300 mbar for oil phase. To generate droplets, cell suspension and a carrier phase (FC40 containing 5% (v/v) of the surfactant Pico-Surf1, Dolomite), were pumped into the cross-junction.
As a proof-of-principle experiment, hGLP1R/LacZ-293 was suspended at 5.0 × 10^6 cells/mL in the following media: DMEM, DMEM containing authentic Ex4, DMEM containing WT S. cerevisiae (Yeast-WT), or DMEM containing Ex4-secreting S. cerevisiae (Yeast-Ex4). The concentration of yeast cells was set to be 9.1 × 10^6 cells/mL. CMFDG was added in the media to realize a concentration of 50 µM. After encapsulation, the droplets were incubated at 30 °C for 6 h. Fluorescence intensity of each droplet was calculated by image analysis under a confocal laser scanning fluorescence microscope.

[6] = 30 nM authentic Ex4 vs 0 nM, mean ± SD (n = 3), two-tailed Student's t-test, Fig. 2a
[7] = culture supernatants of Ex4-secretory yeast (yeast-Ex4) vs WT yeast, n = 3, Fig. 2b

Substance: exendin-4 [Ex4]
- fluorescence (LacZ reporter) (human GLP1R (hGLP1R) [1]): significant increase in fluorescence
- fluorescence (LacZ reporter) (human GLP1R (hGLP1R) [2]): significant increase in fluorescence
- agonist strength at GLP1R (GLP1R): very strong agonist
- reporter signal (NanoLuc luminescence) (human GLP1R (hGLP1R) [3]; [6]): significant reporter signals in both lines
- reporter signal (NanoLuc luminescence) (human GLP1R (hGLP1R) [3]; [7]): significant reporter signals in both lines
- reporter signal (LacZ fluorescence) (human GLP1R (hGLP1R) [4]; [6]): significant reporter signals in both lines
- reporter signal (LacZ fluorescence) (human GLP1R (hGLP1R) [4]; [7]): significant reporter signals in both lines
- overlap of box plots of droplet fluorescence, "Ex4" vs "no ligand" (human GLP1R (hGLP1R) [5]; 30 nM authentic Ex4, 30 °C): partially overlapped
- fluorescence intensity of droplets (human GLP1R (hGLP1R) [5]; 30 nM authentic Ex4 vs no ligand, two-tailed Student's t-test): significant increases in fluorescence intensity
- fluorescence intensity of droplets (human GLP1R (hGLP1R) [5]; yeast cells secreting Ex4 (9.1 × 10^6 cells/mL) vs Yeast-WT): significant increases in fluorescence intensity
